Measurements published in ChEMBL document CHEMBL4842316, “Structure-based bioisosterism design of thio-benzoxazepinones as novel necroptosis inhibitors” (Eur J Med Chem, 2021).
Activity calls are given as the source filed them. The calls are words filed in the database; no cut-off is given here.

How the values were obtained:
[1] = Cytotoxicity against human HT-29 cells assessed as reduction in cell viability measured after 8 to 10 hrs by celltiter-glo luminescent cell viability assay; format: cell-based; details: time 8-10 hrs
[2] = system: HT-29; assay: Anti-necroptotic activity in human HT-29 cells assessed as inhibition of hTNFalpha/Z-VAD-fmk (TSZ)-induced necroptosis by measuring increase in cell viability measured after 8 to 10 hrs by celltiter-glo luminescent cell viability assay; format: functional, cell-based
[3] = target: Receptor-interacting serine/threonine-protein kinase 3 (Homo sapiens) (UniProt Q9Y572); assay: Inhibition of RIPK3 in Z-VAD-fmk (TSZ)-induced human HT-29 cells assessed as reduction in RIPK1-RIPK3 necrosome formation at 1 uM measured after 6 hrs by Western blot analysis; format: cell-based
Chain of Receptor-interacting serine/threonine-protein kinase 3 (Homo sapiens) (Q9Y572 whole entry, looked up): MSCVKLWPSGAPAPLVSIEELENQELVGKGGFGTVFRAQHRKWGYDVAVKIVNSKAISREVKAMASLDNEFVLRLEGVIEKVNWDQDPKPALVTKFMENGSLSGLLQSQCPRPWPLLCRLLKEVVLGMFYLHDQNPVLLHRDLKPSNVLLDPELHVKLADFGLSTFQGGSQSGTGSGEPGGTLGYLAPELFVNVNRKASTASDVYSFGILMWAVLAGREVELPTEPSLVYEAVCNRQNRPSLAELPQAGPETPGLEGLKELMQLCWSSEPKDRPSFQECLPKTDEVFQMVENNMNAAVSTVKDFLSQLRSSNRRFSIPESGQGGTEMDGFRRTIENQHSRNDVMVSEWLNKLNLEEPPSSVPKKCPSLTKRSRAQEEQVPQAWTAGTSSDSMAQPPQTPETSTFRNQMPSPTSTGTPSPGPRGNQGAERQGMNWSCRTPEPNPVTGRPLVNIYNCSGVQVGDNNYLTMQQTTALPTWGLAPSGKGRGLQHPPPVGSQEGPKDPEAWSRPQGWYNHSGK

[4] = target: Receptor-interacting serine/threonine-protein kinase 3 (Homo sapiens) (UniProt Q9Y572); assay: Inhibition of RIPK3 phosphorylation in Z-VAD-fmk (TSZ)-induced human HT-29 cells measured at 4 hrs by immunoblotting analysis; format: cell-based; details: dose 0.001-1 µM
[5] = system: HT-29; assay: Anti-necroptotic activity in human HT-29 cells assessed as inhibition of Z-VAD-fmk (TSZ)-induced necroptosis by measuring increase in cell viability measured after 8 to 10 hrs by celltiter-glo luminescent cell viability assay; format: functional, cell-based; details: time 8-10 hrs
[6] = target: T1, Receptor-interacting serine/threonine-protein kinase 1 (Homo sapiens) (UniProt Q13546); assay: Inhibition of RIPK1 phosphorylation in Z-VAD-fmk (TSZ)-induced human HT-29 cells at 1 uM measured up to 4 hrs by immunoblotting analysis; format: cell-based; details: time hrs <=4
T1 sequence (whole entry): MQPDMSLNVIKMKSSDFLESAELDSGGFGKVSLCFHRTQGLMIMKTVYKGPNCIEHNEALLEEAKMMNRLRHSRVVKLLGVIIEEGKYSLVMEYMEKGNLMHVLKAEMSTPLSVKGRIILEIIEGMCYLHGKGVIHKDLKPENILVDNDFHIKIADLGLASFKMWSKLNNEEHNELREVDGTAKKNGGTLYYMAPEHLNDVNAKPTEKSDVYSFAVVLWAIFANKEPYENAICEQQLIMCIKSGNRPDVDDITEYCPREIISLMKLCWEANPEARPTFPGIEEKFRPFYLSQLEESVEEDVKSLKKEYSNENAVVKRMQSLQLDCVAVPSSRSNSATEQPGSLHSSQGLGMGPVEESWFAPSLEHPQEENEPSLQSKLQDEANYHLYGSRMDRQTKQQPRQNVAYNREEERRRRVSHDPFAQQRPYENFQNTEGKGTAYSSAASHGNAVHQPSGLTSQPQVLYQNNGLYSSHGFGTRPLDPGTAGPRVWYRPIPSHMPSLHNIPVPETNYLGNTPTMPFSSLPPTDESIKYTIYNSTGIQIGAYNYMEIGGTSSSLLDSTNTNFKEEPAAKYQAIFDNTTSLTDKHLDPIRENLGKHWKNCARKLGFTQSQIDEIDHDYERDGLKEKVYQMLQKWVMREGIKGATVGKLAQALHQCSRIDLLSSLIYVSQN

[7] = target: T2, Mixed lineage kinase domain-like protein (Homo sapiens) (UniProt Q8NB16); assay: Inhibition of MLKL phosphorylation in Z-VAD-fmk (TSZ)-induced human HT-29 cells measured at 4 hrs by immunoblotting analysis; format: cell-based; details: dose 0.001-1 µM
T2 sequence (whole entry): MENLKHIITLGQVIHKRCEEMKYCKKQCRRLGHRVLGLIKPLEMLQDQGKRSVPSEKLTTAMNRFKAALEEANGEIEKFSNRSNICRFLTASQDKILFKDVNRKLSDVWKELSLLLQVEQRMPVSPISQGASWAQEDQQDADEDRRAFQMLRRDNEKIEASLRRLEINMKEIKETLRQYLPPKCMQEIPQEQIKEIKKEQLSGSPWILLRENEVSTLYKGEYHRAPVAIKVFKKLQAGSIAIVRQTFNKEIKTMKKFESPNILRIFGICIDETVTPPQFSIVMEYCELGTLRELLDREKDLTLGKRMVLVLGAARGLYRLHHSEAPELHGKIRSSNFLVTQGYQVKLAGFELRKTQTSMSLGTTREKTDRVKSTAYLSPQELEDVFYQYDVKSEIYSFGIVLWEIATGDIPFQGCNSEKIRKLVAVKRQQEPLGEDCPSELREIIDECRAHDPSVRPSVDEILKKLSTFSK

[8] = target: T2, Mixed lineage kinase domain-like protein (Homo sapiens); assay: Inhibition of MLKL phosphorylation in Z-VAD-fmk (TSZ)-induced human HT-29 cells at 1 uM measured up to 4 hrs by immunoblotting analysis; format: cell-based; details: time hrs <=4
[9] = target: T1, Receptor-interacting serine/threonine-protein kinase 1 (Homo sapiens); assay: Inhibition of RIPK1 in Z-VAD-fmk (TSZ)-induced human HT-29 cells assessed as reduction in RIPK1-RIPK3 necrosome formation at 1 uM measured after 6 hrs by Western blot analysis; format: cell-based
[10] = target: T1, Receptor-interacting serine/threonine-protein kinase 1 (Homo sapiens); assay: Inhibition of RIPK1 phosphorylation in Z-VAD-fmk (TSZ)-induced human HT-29 cells measured at 4 hrs by immunoblotting analysis; format: cell-based; details: dose 0.001-1 µM
[11] = target: Receptor-interacting serine/threonine-protein kinase 3 (Homo sapiens) (UniProt Q9Y572); assay: Inhibition of RIPK3 phosphorylation in Z-VAD-fmk (TSZ)-induced human HT-29 cells at 1 uM measured up to 4 hrs by immunoblotting analysis; format: cell-based; details: time hrs <=4

Compound | CC50 [1] [µM] | EC50 [2] [µM] | other results
Cc1ccc2c(n1)OC[C@H](NC(=O)c1n[nH]c(Cc3ccccc3)n1)C(=S)N2C | > 50 | 0.122 | –
CN1C(=S)[C@@H](NC(=O)c2n[nH]c(Cc3ccccc3)n2)COc2ccccc21 | > 50 | 0.0028 | inhibition [3]: Active; inhibition [4]: Dose-Dependent Effect; Activity [5]: Dose-Dependent Effect; inhibition [6]: Active; inhibition [7]: Dose-Dependent Effect; inhibition [8]: Active; inhibition [9]: Active; inhibition [10]: Dose-Dependent Effect; inhibition [11]: Active
Cc1ccc2c(n1)OC[C@H](NC(=O)c1n[nH]c(Cc3ccccc3)n1)C(=O)N2C | > 50 | 0.363 | –
CN1C(=S)[C@@H](NC(=O)c2n[nH]c(Cc3ccccc3)n2)COc2ncccc21 | > 50 | > 10 | –
Cc1cnc2c(c1)N(C)C(=O)[C@H](NC(=O)c1n[nH]c(Cc3ccccc3)n1)CO2 | > 50 | > 10 | –
O=C(N[C@@H]1COc2ccccc2NC1=S)c1n[nH]c(Cc2ccccc2)n1 | > 50 | 8.84 | –
[2H]C([2H])([2H])N1C(=S)[C@H](NC(=O)c2n[nH]c(Cc3ccccc3)n2)COc2ccccc21 | > 50 | 0.0763 | –
CN1C(=O)[C@@H](NC(=O)c2n[nH]c(Cc3ccccc3)n2)COc2ncccc21 | > 50 | > 10 | –
Cc1ccc2c(n1)OC[C@@H](NC(=O)c1n[nH]c(Cc3ccccc3)n1)C(=O)N2C | > 50 | 6.5 | –
CN1C(=O)[C@@H](NC(=O)c2nnc(Cc3ccccc3)[nH]2)COc2ccccc21 [GSK2982772] | > 50 | 0.0036 | –
CN1C(=O)[C@H](NC(=O)c2nnc(Cc3ccccc3)[nH]2)COc2ccccc21 | > 50 | 0.279 | –
Cc1cnc2c(c1)N(C)C(=S)[C@H](NC(=O)c1n[nH]c(Cc3ccccc3)n1)CO2 | > 50 | 3.4 | –
CN1C(=S)[C@H](NC(=O)c2n[nH]c(Cc3ccccc3)n2)COc2ccccc21 | > 50 | 0.0226 | inhibition [3]: Active; inhibition [4]: Dose-Dependent Effect; Activity [5]: Dose-Dependent Effect; inhibition [6]: Active; inhibition [7]: Dose-Dependent Effect; inhibition [8]: Active; inhibition [9]: Active; inhibition [10]: Dose-Dependent Effect; inhibition [11]: Active
[2H]C([2H])([2H])N1C(=S)[C@@H](NC(=O)c2n[nH]c(Cc3ccccc3)n2)COc2ccccc21 | > 50 | 0.0074 | –
CN1C(=O)[C@H](NC(=O)c2n[nH]c(Cc3ccccc3)n2)COc2cccnc21 | > 50 | 0.81 | –
CN1C(=O)[C@@H](NC(=O)c2nnc(Cc3ccccc3)[nH]2)COc2cccnc21 [ECLITASERTIB] | > 50 | 0.0154 | –
Cc1ccc2c(n1)OC[C@@H](NC(=O)c1n[nH]c(Cc3ccccc3)n1)C(=S)N2C | > 50 | 2.02 | –
CN1C(=O)[C@H](NC(=O)c2n[nH]c(Cc3ccccc3)n2)COc2ncccc21 | > 50 | > 10 | –
CCN1C(=S)[C@@H](NC(=O)c2n[nH]c(Cc3ccccc3)n2)COc2ccccc21 | > 50 | 1.51 | –
O=C(N[C@H]1COc2ccccc2NC1=S)c1n[nH]c(Cc2ccccc2)n1 | > 50 | 0.736 | –
CCN1C(=S)[C@H](NC(=O)c2n[nH]c(Cc3ccccc3)n2)COc2ccccc21 | > 50 | 6.68 | –
CN1C(=S)[C@@H](NC(=O)c2n[nH]c(Cc3ccccc3)n2)COc2cccnc21 | > 50 | 0.0137 | –
CN1C(=S)[C@H](NC(=O)c2n[nH]c(Cc3ccccc3)n2)COc2cccnc21 | > 50 | 0.0186 | –
Cc1cnc2c(c1)N(C)C(=O)[C@@H](NC(=O)c1n[nH]c(Cc3ccccc3)n1)CO2 | > 50 | 0.243 | –
Cc1cnc2c(c1)N(C)C(=S)[C@@H](NC(=O)c1n[nH]c(Cc3ccccc3)n1)CO2 | > 50 | 0.144 | –
CN1C(=S)[C@H](NC(=O)c2n[nH]c(Cc3ccccc3)n2)COc2ncccc21 | > 50 | > 10 | –
